Here are results for 26 compounds from patent US20030055065A1, “Tricyclic amide and urea compounds useful for inhibition of G-protein function and for treatment of proliferative diseases” (priority 1993, published 2003).

Values joined by “and” are separate entries in the source; they are usually repeats but may differ in a detail not shown here. Identical values can stand only once. Like-named read-outs stand apart in the source and are kept apart here.

Assay [1] addresses T1, farnesyl protein transferase (FPT), partially purified from rat brain (Rattus norvegicus, UniProt Q02293+Q04631).
T1 construct: were partially purified from rat brain by ammonium sulfate fractionation followed by Q-Sepharose
The experiment in a line: Inhibition of farnesyl protein transferase (transfer of [3H]farnesyl to Ras-CVLS). It counts as biochemical. A digest of the protocol: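 Transfer of [3H]farnesyl onto E. coli-expressed, His6-tagged Ras-CVLS was measured after 30 min at room temperature. Radiolabelled Ras was TCA-precipitated on ice and filter-harvested, and inhibition was expressed as percent of DMSO control.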

For assay [2], the system named is Ras-CVLS processing in COS monkey kidney cells. The experiment in a line: COS cell assay: Ras-CVLS processing (Western blot). The settings on record: COS cells; for IC50: read-out: Inhibition of Ras Processing IC50. The class given is cell-based. As for the experimental part:
2. […] Effect of farnesyl protein transferase inhibitors on Ras processing and on disordered cell growth induced by transforming Ras. COS monkey kidney cells were transfected by electroporation with the plasmid pSV-SPORT (Gibco/BRL) containing a cDNA insert encoding either Ras-CVLS or Ras-CVLL, leading to transient overexpression of a Ras substrate for either farnesyl protein transferase or geranylgeranyl protein transferase I, respectively (see above). […] After 24 hours, media was removed and fresh media containing the appropriate drugs was re-added. 48 hours after electroporation cells were examined under the microscope to monitor disordered cell growth induced by transforming Ras. Cells expressing transforming Ras become more rounded and refractile and overgrow the monolayer, reminiscent of the transformed phenotype. […] Cells were lysed by homogenization and cell debris was removed by centrifugation at 2000×g for 10 min. Cellular protein was precipitated by addition of ice-cold trichloroacetic acid and redissolved in 100 μl of SDS-electrophoresis sample buffer. […] Proteins resolved on the gels were electroblotted onto nitrocellulose membranes for immunodetection. […] E., et al., (1982), Monoclonal antibodies to the p21 products of the transforming gene of Harvey murine sarcome virus and of the cellular ras gene family, J. Virol. 43: 294-304), in PBS containing 1% fetal calf serum for one hour at room temperature. After washing, membranes were incubated for one hour at room temperature with a 1:5000 dilution of secondary antibody, rabbit anti-rat IgG conjugated to horseradish peroxidase, in PBS containing 1% fetal calf serum.

The test system of assay [3] is T24-BAG4 human bladder carcinoma cells expressing an activated H-ras gene. The experiment in a line: Cell Mat Assay: tumor cell colony inhibition (tIC50). The class given is cell-based. The settings on record: inhibition of tumor cell growth. A digest of the protocol:
(§1)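 Serial compound dilutions added 24 h after planting T24-BAG4 cells onto a mat of normal cells, then 14 d colony growth; monolayers glutaraldehyde-fixed and tumor cells X-Gal stained. tIC50 and mIC50 from microscope counts of colonies, cells per colony and mat cell density.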

Assay [4] has as its system Normal human HEPM fibroblasts. The experiment in a line: Cell Mat Assay: density of mat cells (mIC50). The class given is cell-based. A digest of the protocol:
as §1

The mark [5] stands for this setting: Ras-CVLS farnesylation, partially purified rat brain FPT, read-out: FPT IC50.
[6] abbreviates: enzyme inhibition, read-out: FPT IC50.

T1 sequence (Q02293 whole entry, one chain of several): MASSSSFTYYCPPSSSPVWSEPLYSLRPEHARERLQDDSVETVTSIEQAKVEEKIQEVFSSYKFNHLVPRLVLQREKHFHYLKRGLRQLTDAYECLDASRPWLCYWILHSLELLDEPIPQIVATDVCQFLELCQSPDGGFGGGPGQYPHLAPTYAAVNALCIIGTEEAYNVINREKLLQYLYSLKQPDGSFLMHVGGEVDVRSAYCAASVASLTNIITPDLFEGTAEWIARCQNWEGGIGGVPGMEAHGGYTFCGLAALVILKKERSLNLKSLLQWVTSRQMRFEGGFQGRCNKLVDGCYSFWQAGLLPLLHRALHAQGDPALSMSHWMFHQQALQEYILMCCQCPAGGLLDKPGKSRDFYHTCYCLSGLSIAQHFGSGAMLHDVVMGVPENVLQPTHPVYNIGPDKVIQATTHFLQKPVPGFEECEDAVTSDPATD

As to `COc1cnc2c(c1)CCc1cc(Cl)ccc1C2=C1CCN(C(=O)Cc2cccnc2)CC1` [Example 239, 4-(8-Chloro-3-methoxy-5,6-dihydro-11H-benzo[5,6]cyclohepta[1,2-b]pyridin-11-ylidene)-1-[(3-pyridinyl]acetyl]-piperidine], the IC50 in assay [1] (setting [5]) is 1750 nM; in assay [2] (Primates, COS), 4.6 µM; in assay [3] (Homo sapiens) it was 37 µM; in assay [4] (Homo sapiens, Fibroblast) it was over 50 µM.

For `O=C(Cc1cccnc1)N1CCC(C2c3ccc(Cl)cc3C=Cc3cccnc32)CC1` (stereo not drawn) [Example 266], the IC50 was 460 nM in assay [1] (FPT IC50, Ras-CVLS farnesylation, partially purified rat brain FPT); 0.89 µM in assay [2] (listed as 266 (5.138)); 0.77 µM in assay [2] (Primates, COS); 3.1 µM in assay [3] (Homo sapiens); 6.25 µM in assay [4] (Homo sapiens, Fibroblast).

Take `O=C(Cc1cccnc1)N1CCC(=C2c3ccc(Cl)cc3C=Cc3cccnc32)CC1` [Example 276]: the IC50 in assay [1] (setting [5]) is 1770 nM; in assay [2] (Primates, COS), 2.9 µM; in assay [3] (Homo sapiens) it was 12.5 µM; in assay [4] (Homo sapiens, Fibroblast), 50 µM.

For the compound `O=C1Cc2cc(Cl)ccc2C(=C2CCN(C(=O)Cc3ccncc3)CC2)c2ncccc21` [Example 281], the IC50 is 2900 nM in assay [1] (setting [5]); 7 µM in assay [2] (Primates, COS); 4 µM in assay [3] (Homo sapiens); over 50 µM in assay [4] (Homo sapiens, Fibroblast).

As to `O=C1Cc2cccnc2C(=C2CCN(C(=O)Cc3cccnc3)CC2)c2ccc(Cl)cc21` [Example 283], the IC50 in assay [1] (setting [5]) was 480 nM and 550 nM; in assay [2] (Primates, COS), 5.6 µM; in assay [3] (Homo sapiens), 10 µM; in assay [4] (Homo sapiens, Fibroblast), over 50 µM.

With `O=C1Cc2cccnc2C(=C2CCN(C(=O)Cc3ccncc3)CC2)c2ccc(Cl)cc21` [Example 285], the IC50 is 760 nM in assay [1] (setting [5]); 10.1 µM in assay [2] (listed as 285 (5.153)); 5.2 µM in assay [2] (Primates, COS); 12.5 µM in assay [3] (Homo sapiens); over 50 µM in assay [4] (Homo sapiens, Fibroblast).

As to `O=C(Cc1ccncc1)N1CCC(=C2c3ccc(Cl)cc3C(O)Cc3cccnc32)CC1` (stereo not drawn) [Example 286], the IC50 was 1500 nM in assay [1] (setting [5]); 8.3 µM in assay [2] (Primates, COS); 25 µM in assay [3] (Homo sapiens); over 50 µM in assay [4] (Homo sapiens, Fibroblast).

For the compound `O=C(Nc1ccccn1)N1CCC(=C2c3ccc(Cl)cc3CCc3cccnc32)CC1` [Example 294], the IC50 was 2110 nM in assay [1] (setting [5]); 2.8 µM in assay [2]; 5.2 µM in assay [2] (Primates, COS); 18 µM in assay [3] (Homo sapiens); over 50 µM in assay [4] (Homo sapiens, Fibroblast).

For `CC(C)(C(=O)N1CCC(=C2c3ccc(Cl)cc3CCc3cccnc32)CC1)c1cccnc1` [Example 300], the half-inhibitory concentration (IC50) in assay [1] (setting [5]) was 960 nM; in assay [2] (Primates, COS), 2.6 µM; in assay [3] (Homo sapiens) it was under 3.1 µM; in assay [4] (Homo sapiens, Fibroblast) it was over 50 µM.

Regarding `CC(C)(C(=O)N1CCN(C2c3ccc(Cl)cc3CCc3cc(Br)cnc32)CC1)c1ccc[n+]([O-])c1` (stereo not drawn) [Example 352], the IC50 in assay [1] (setting [5]) was 740 nM and 380 nM; in assay [2] (Primates, COS), 2.2 µM; in assay [3] (Homo sapiens), 1.6 µM; in assay [4] (Homo sapiens, Fibroblast) it was over 25 µM.

In the case of `CC(C)(C(=O)N1CCN(C2c3ccc(Cl)cc3CCc3cc(Br)cnc32)CC1)c1cccnc1` (stereo not drawn) [Example 353], the IC50 in assay [1] (setting [5]) is 760 nM and 300 nM; in assay [2] (Primates, COS), 0.9 µM; in assay [3] (Homo sapiens), 6.25 µM; in assay [4] (Homo sapiens, Fibroblast) it was over 25 µM.

In the case of `O=C(Nc1cccnc1)N1CCC(C2c3ccccc3CCc3cccnc32)CC1` (stereo not drawn) [Example 365], the IC50 in assay [1] (setting [5]) is 5000 nM; in assay [2], 3.1 µM; in assay [3], 6.25 µM; in assay [4], over 50 µM.

With `O=C(Nc1ccncc1)N1CCC(C2c3ccccc3CCc3cccnc32)CC1` (stereo not drawn) [Example 366], the IC50 in assay [1] (setting [5]) is 4000 nM; in assay [2], 3.3 µM; in assay [3], 3.1 µM; in assay [4], over 50 µM.

Turning to `O=C(Nc1ccccc1)N1CCC(C2c3ccccc3CCc3cccnc32)CC1` (stereo not drawn) [Example 367], the IC50 is 3300 nM in assay [1] (setting [5]), 6.2 µM in assay [2], 6.25 µM in assay [3] and over 50 µM in assay [4].

Consider `O=C(Cc1cc[n+]([O-])cc1)N1CCC(=C2c3ccc(Cl)cc3CCc3cc(Br)cnc32)CC1` [Example 400-L], for which the IC50 in assay [1] (setting [5]) is 95 nM and 90 nM; in assay [1] (setting [6]), 95 nM and 90 nM; in assay [2], 0.65 µM; in assay [2] (Primates, COS), 0.6 µM; in assay [3] (Homo sapiens), under 1.6 µM; in assay [3] it was under 0.8 µM. Further, the IC50 was over 12.5 µM in assay [4] and over 25 µM in assay [4] (Homo sapiens, Fibroblast).

Regarding `CC(C)(C(=O)N1CCC(=C2c3ccc(Cl)cc3CCc3cc(Br)cnc32)CC1)c1ccc[n+]([O-])c1` [Example 411-A], the IC50 in assay [1] (setting [6]) was 590 nM; in assay [2] (Primates, COS), 0.7 µM; in assay [3] (Homo sapiens), 1.6 µM; in assay [4] (Homo sapiens, Fibroblast) it was over 25 µM.

Consider `O=C(Cc1ccncc1)N1CCC(C2c3ccc(Cl)cc3C=Cc3cc([N+](=O)[O-])cnc32)CC1` (stereo not drawn) [Example 411-B], for which the IC50 in assay [1] (setting [6]) was 320 nM; in assay [2] (Primates, COS) it was 1.8 µM; in assay [3] (Homo sapiens), 6.25 µM; in assay [4] (Homo sapiens, Fibroblast) it was over 25 µM.

`CC(C)(C(=O)N1CCC(=C2c3ccc(Cl)cc3CCc3cc(Br)cnc32)CC1)c1cc[n+]([O-])cc1` [Example 411-D]: the half-inhibitory concentration (IC50) in assay [1] (setting [6]) was 620 nM; in assay [2] (Primates, COS) it was 1.6 µM; in assay [3] (Homo sapiens) it was 8 µM; in assay [4] (Homo sapiens, Fibroblast), over 25 µM.

Consider `O=C(Cc1ccc[n+]([O-])c1)N1CCC(=C2c3ccc(Cl)cc3CCc3cc(Br)cnc32)CC1` [Example 411-G], for which the IC50 in assay [1] (setting [6]) was 700 nM; in assay [2] (Primates, COS) it was 5.1 µM; in assay [3] (Homo sapiens) it was 6.25 µM; in assay [3], 4 µM; in assay [4] it was over 12.5 µM; in assay [4] (Homo sapiens, Fibroblast) it was over 25 µM.

Turning to `CC(C)(C(=O)N1CCC(=C2c3ccc(Cl)cc3CCc3cc(Br)cnc32)CC1)c1ccncc1` [Example 411], the IC50 was 320 nM in assay [1] (setting [6]); about 1 µM in assay [2] (Primates, COS); 18 µM in assay [3] (Homo sapiens); over 25 µM in assay [4] (Homo sapiens, Fibroblast). The “Inhibition of Ras Processing at the concentration in parentheses” value in assay [2] ((5) μM) is 93 (5).

Take `CCc1cc2c(cc1Cl)C=Cc1cccnc1C2C1CCN(C(=O)Cc2ccncc2)CC1` (stereo not drawn) [Example 417]: the IC50 in assay [1] (setting [6]) is 1160 nM; in assay [2] (Primates, COS), 4 µM; in assay [3] (Homo sapiens), 10 µM; in assay [4] (Homo sapiens, Fibroblast) it was 18 µM.

`O=C1Cc2cccnc2C(=C2CCN(C(=O)Cc3cc[n+]([O-])cc3)CC2)c2ccc(Cl)cc21` [Example 418]: the half-inhibitory concentration (IC50) was 1850 nM in assay [1] (setting [6]); over 10 µM in assay [2] (Primates, COS); 25 µM in assay [3] (Homo sapiens); over 25 µM in assay [4] (Homo sapiens, Fibroblast).

For the compound `O=C(Cc1cc[n+]([O-])cc1)N1CCN([C@H]2c3ccc(Cl)cc3CCc3cccnc32)CC1` [Example 425-E], the IC50 in assay [1] (setting [6]) is 490 nM; in assay [2] (Primates, COS), 5 µM; in assay [3] (Homo sapiens), 1.6 µM; in assay [4] (Homo sapiens, Fibroblast) it was over 25 µM.

Regarding `CC(C)(C(=O)N1CCN(C2c3ccc(Cl)cc3CCc3cc(Br)cnc32)CC1)c1cc[n+]([O-])cc1` (stereo not drawn) [Example 425-J], the IC50 in assay [1] (setting [6]) was 390 nM; in assay [2] (Primates, COS) it was 5 µM; in assay [3] (Homo sapiens) it was 3.1 µM; in assay [4] (Homo sapiens, Fibroblast) it was over 25 µM.

As for `CN1CCC(CC(=O)N2CCN(C3c4ccc(Cl)cc4CCc4c(Cl)ccnc43)CC2)CC1` (stereo not drawn) [Example 425-P], the IC50 was 450 nM in assay [1] (setting [6]); 5.7 µM in assay [2] (Primates, COS); over 3.1 µM in assay [3] (Homo sapiens); 3.1 µM in assay [4] (Homo sapiens, Fibroblast).

Regarding `O=C(Cc1cc[n+]([O-])cc1)N1CCN(C2c3ccc(Cl)cc3CCc3c(Cl)ccnc32)CC1` (stereo not drawn) [Example 426-A], the half-maximal inhibitory concentration (IC50) was 330 nM in assay [1] (setting [6]); over 5 µM in assay [2] (Primates, COS); 6.25 µM in assay [3] (Homo sapiens); over 25 µM in assay [4] (Homo sapiens, Fibroblast).
